Reference: BigSolDB 2.1

Cn1cnc2c1c(=O)[nH]c(=O)n2C
Conditions	solubility (mole fraction)
in acetone, 288.13 K	1.47e-05
in acetone, 297.99 K	2.23e-05
in acetone, 308.08 K	2.99e-05
in acetone, 318.07 K	4.57e-05
in acetone, 328.17 K	6.77e-05
in ethanol, 288.15 K	1.38e-05
in ethanol, 298.2 K	2.26e-05
in ethanol, 308.19 K	3.85e-05
in ethanol, 318.16 K	6.31e-05
in ethanol, 328.16 K	0.000106
in ethyl acetate, 288.13 K	1.04e-05
in ethyl acetate, 297.99 K	1.59e-05
in ethyl acetate, 308.08 K	2.28e-05
in ethyl acetate, 318.07 K	3.33e-05
in ethyl acetate, 328.17 K	4.94e-05
in methanol, 288.07 K	2.82e-05
in methanol, 298.1 K	4.34e-05
in methanol, 308.93 K	7e-05
in methanol, 318.62 K	0.00011
in methanol, 328.15 K	0.000163
in n-propanol, 288.15 K	1.18e-05
in n-propanol, 298.2 K	2.06e-05
in n-propanol, 308.19 K	3.71e-05
in n-propanol, 318.16 K	6.37e-05
in n-propanol, 328.16 K	0.000109
in water, 288.07 K	3.09e-05
in water, 298.1 K	4.73e-05
in water, 308.93 K	6.93e-05
in water, 318.62 K	0.0001
in water, 328.15 K	0.000145

Cn1c(=O)c2[nH]cnc2n(C)c1=O
Conditions	solubility (mole fraction)
in acetone, 288.02 K	0.000667
in acetone, 298.15 K	0.00093
in acetone, 308.15 K	0.00124
in acetone, 318.15 K	0.00147
in acetone, 328.1 K	0.0018
in ethanol, 288.01 K	0.0008
in ethanol, 297.95 K	0.00116
in ethanol, 308.01 K	0.00173
in ethanol, 318.11 K	0.00254
in ethanol, 328.09 K	0.00319
in ethyl acetate, 288.02 K	0.000502
in ethyl acetate, 298.15 K	0.000673
in ethyl acetate, 308.15 K	0.000901
in ethyl acetate, 318.15 K	0.0011
in ethyl acetate, 328.1 K	0.00141
in methanol, 288.06 K	0.00077
in methanol, 298.16 K	0.00137
in methanol, 308.16 K	0.00217
in methanol, 318.13 K	0.00298
in methanol, 328.19 K	0.00394
in n-propanol, 288.01 K	0.000912
in n-propanol, 297.95 K	0.00136
in n-propanol, 308.01 K	0.00204
in n-propanol, 318.11 K	0.00313
in n-propanol, 328.09 K	0.00423
in water, 288.06 K	0.000325
in water, 298.16 K	0.00063
in water, 308.16 K	0.000991
in water, 318.13 K	0.00141
in water, 328.19 K	0.00216
